Assay results from BindingDB's records for doi:10.7270/Q2222S6W (University of Pittsburgh, 2007).
Structures can show the parent of a compound that is named as a salt.

target: Genome polyprotein (West Nile virus, UniProt P06935); test: West Nile NS2B-NS3 proteinase blockers – biochemical, confirmation, dose response (AID 653)
Sequence (P06935 1371-1501 limits assumed): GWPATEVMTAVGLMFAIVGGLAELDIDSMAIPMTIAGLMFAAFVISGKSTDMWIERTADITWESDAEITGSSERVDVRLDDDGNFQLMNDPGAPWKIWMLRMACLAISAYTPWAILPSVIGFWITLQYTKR
Sequence (P06935 1502-2120 limits assumed): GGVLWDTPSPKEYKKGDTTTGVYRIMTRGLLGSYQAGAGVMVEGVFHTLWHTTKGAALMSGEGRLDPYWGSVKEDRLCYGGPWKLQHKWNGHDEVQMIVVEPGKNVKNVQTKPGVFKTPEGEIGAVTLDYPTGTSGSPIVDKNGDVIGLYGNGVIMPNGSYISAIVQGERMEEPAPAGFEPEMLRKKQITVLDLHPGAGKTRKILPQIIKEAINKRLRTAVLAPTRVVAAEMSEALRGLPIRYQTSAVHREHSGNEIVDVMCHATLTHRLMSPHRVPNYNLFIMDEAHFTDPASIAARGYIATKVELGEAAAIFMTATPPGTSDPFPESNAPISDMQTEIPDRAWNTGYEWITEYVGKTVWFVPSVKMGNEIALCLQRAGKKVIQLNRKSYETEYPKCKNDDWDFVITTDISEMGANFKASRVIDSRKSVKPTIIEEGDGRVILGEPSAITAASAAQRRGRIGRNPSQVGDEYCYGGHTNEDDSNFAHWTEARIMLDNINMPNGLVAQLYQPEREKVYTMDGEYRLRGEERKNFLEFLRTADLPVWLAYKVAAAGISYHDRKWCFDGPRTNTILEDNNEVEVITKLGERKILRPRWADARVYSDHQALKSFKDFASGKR

Compared with CCS(=O)(=O)N1Cc2ccccc2CC1C(=O)N1CCN(c2cccc(C)c2C)CC1 (stereo not given) [MLS000053522], COc1ccc(N2CCN(C(CNC(=O)Oc3ccccc3)c3cccnc3)CC2)cc1 (stereo not given) [MLS000094397] is higher in IC50: 38.6 µM for the first, > 50 µM for the second. The first is the more potent here.

CCN(CC(=O)Nc1ccccc1OC)C(=O)C1CC2C=CC1C2 (stereo not given) [MLS000053693] and CCN(Cc1ccccc1)C(=O)c1ccccc1C [MLS000058902] cannot be ordered by IC50: > 50 µM for the first, > 50 µM for the second.

Cc1sc2nc3c4ccccc4c(NCc4ccco4)nn3c(=O)c2c1C [MLS000056809] and COc1ccc2nc(NC(=O)CSc3nc4cccnc4n3C)sc2c1 [MLS000072990] cannot be ordered by IC50: > 50 µM for the first, > 50 µM for the second.

Cn1nnc2cc(C(=O)NC3CCCCC3)ccc21 [MLS000063766] and O=C(OC1CCCCC1)c1ccc2c(c1)C1C=CCC1C(C(=O)O)N2 (stereo not given) [SMR000019385] cannot be ordered by IC50: > 50 µM for the first, > 50 µM for the second.

First: Nc1ccc(S(=O)(=O)Nc2ccccn2)cc1 [MLS000069725]
Second: Nc1cc(OC(=O)c2cccs2)nn1S(=O)(=O)c1ccccc1 [SMR000021562]
The IC50 of the first is higher: > 50 µM for the first, 2.38 µM for the second. The second is the more potent here.

COc1ccc(OC)c(NS(=O)(=O)c2cccs2)c1 [MLS000070319] and COC(=O)c1[nH]c2cc(OC)ccc2c1NC(=O)c1ccc2c(c1)OCO2 [MLS000081144] cannot be ordered by IC50: > 50 µM for the first, > 50 µM for the second.

CCCn1c(SCC(=O)Nc2ccc3c(c2)OCCO3)nnc1-c1ccco1 [MLS000073448] and Cc1ccc(Cl)cc1NC(=O)c1ocnc1C [MLS000092879] cannot be ordered by IC50: > 50 µM for the first, > 50 µM for the second.

CCN1CCN(CNC(=O)c2cnccn2)CC1 [MLS000082173] and CC(C)CCN1CC(C(=O)NCc2ccc(F)cc2)CC1=O (stereo not given) [MLS000096189] cannot be ordered by IC50: > 50 µM for the first, > 50 µM for the second.

O=S(=O)(c1ccc(F)cc1)N(CCO)CC(O)Cn1c2ccccc2c2ccccc21 (stereo not given) [MLS000088265] and COc1ccc(C(=O)c2oc3ccc(Br)cc3c2NC(C)=O)cc1 [MLS000115316] cannot be ordered by IC50: > 50 µM for the first, > 50 µM for the second.

Cc1ccc(NC(=O)C2C3CC4OC(=O)C2C4C3)cc1Cl (stereo not given) [N-(3-chloro-4-methylphenyl)-5-oxo-4-oxatricyclo[4.2.1.0~3,7~]nonane-9-carboxamide] and NC(=O)NC1CCCc2c1[nH]c1ccc(Cl)cc21 (stereo not given) [SMR000091683] cannot be ordered by IC50: > 50 µM for the first, > 50 µM for the second.

CCN1CCN(C(=O)N[C@@H](C(=O)N[C@@H]2C(=O)N3[C@@H]2SC(C)(C)[C@@H]3C(=O)O)c2ccccc2)C(=O)C1=O [PIPERACILLIN SODIUM SALT] and COC(=O)CSC1=NC2=C(C(=O)CCC2)C(c2ccc(C)cc2)C1C#N (stereo not given) [methyl 2-[[3-cyano-4-(4-methylphenyl)-5-oxo-4,6,7,8-tetrahydro-1H-quinolin-2-yl]sulfanyl]acetate] cannot be ordered by IC50: > 50 µM for the first, > 50 µM for the second.

OCCNC1=NCCN1 [SMR000038385] and Nc1ncnc2c1ncn2[C@@H]1O[C@H](CO)[C@@H](O)[C@H]1O [[U-14C]adenosine] cannot be ordered by IC50: > 50 µM for the first, > 50 µM for the second.

Cc1cc(OC(=O)c2ccccc2)n(CCC#N)n1 [[2-(2-cyanoethyl)-5-methyl-pyrazol-3-yl] benzoate] was tested, and the IC50 was 1.35 µM.
